According to the NIST ThermoML archive (doi:10.1021/je034102r):

Assay: molar heat capacity at saturation pressure
Settings: Small (less than 1 g) adiabatic calorimetry

CCCCn1cc[n+](C)c1.F[P-](F)(F)(F)(F)F [1-butyl-3-methylimidazolium hexafluorophosphate]
molar heat capacity [J/K/mol]
Settings | Crystal | Glass
5 K | 1.007 | 1.946
5.09 K | – | 2.049
5.13 K | 1.065 | –
5.36 K | – | 2.336
5.41 K | 1.231 | –
5.59 K | – | 2.627
5.67 K | 1.405 | –
5.85 K | – | 2.997
5.97 K | 1.625 | –
6.14 K | – | 3.411
6.29 K | 1.927 | –
6.47 K | – | 3.839
6.6 K | 2.264 | –
6.82 K | – | 4.454
6.91 K | 2.566 | –
7.15 K | – | 4.943
7.23 K | 2.994 | –
7.49 K | – | 5.596
7.58 K | 3.435 | –
7.84 K | – | 6.275
7.92 K | 3.848 | –
8.21 K | – | 6.958
8.28 K | 4.395 | –
8.61 K | – | 7.772
8.66 K | 4.99 | –
9 K | – | 8.63
9.07 K | 5.739 | –
9.41 K | – | 9.587
9.49 K | 6.479 | –
9.82 K | – | 10.46
9.92 K | 7.352 | –
10 K | 7.487 | 10.93
10.27 K | – | 11.64
10.35 K | 8.195 | –
10.75 K | 9.005 | –
10.76 K | – | 12.74
11.18 K | 10.04 | –
11.23 K | – | 14.01
11.74 K | 11.29 | 15.2
12.29 K | – | 16.65
12.32 K | 12.57 | –
12.81 K | – | 18.03
12.92 K | 14.08 | –
13.36 K | – | 19.55
13.56 K | 15.72 | –
13.99 K | – | 21.2
14.2 K | 17.26 | –
14.65 K | – | 23.01
14.85 K | 19.06 | –
15 K | 19.41 | 23.95
15.35 K | – | 24.94
15.51 K | 20.76 | –
16.07 K | – | 26.85
16.24 K | 22.77 | –
16.81 K | – | 28.88
17 K | 24.84 | –
17.63 K | – | 31.14
17.78 K | 26.97 | –
18.5 K | – | 33.53
18.66 K | 29.5 | –
19.36 K | – | 35.93
19.54 K | 32.1 | –
20 K | 33.34 | 37.71
20.17 K | – | 38.13
20.45 K | 34.73 | –
21.05 K | – | 40.62
21.38 K | 37.23 | –
22.07 K | – | 43.51
22.32 K | 39.8 | –
23.08 K | – | 46.05
23.31 K | 42.57 | –
24.15 K | – | 49.07
24.37 K | 45.56 | –
25 K | 47.15 | 51.23
25.25 K | – | 51.82
25.51 K | 48.5 | –
26.28 K | – | 54.6
26.64 K | 51.23 | –
27.38 K | – | 57.25
27.83 K | 54.25 | –
28.63 K | – | 60.1
29.06 K | 57.36 | –
29.99 K | – | 63.37
30 K | 59.6 | 63.41
30.21 K | 60.16 | –
31.43 K | – | 66.52
31.51 K | 63.15 | –
32.95 K | – | 70.07
32.97 K | 66.37 | –
34.47 K | 69.5 | –
34.52 K | – | 73.45
35 K | 70.66 | 74.31
36.07 K | 72.74 | –
36.17 K | – | 76.76
37.71 K | 76.12 | –
37.88 K | – | 79.79
39.38 K | 79.31 | –
39.66 K | – | 83.48
40 K | 80.48 | 83.89
41.07 K | 82.46 | –
41.55 K | – | 86.89
42.76 K | 85.47 | –
43.54 K | – | 90.3
44.47 K | 88.38 | –
45 K | 89.21 | 92.46
45.53 K | – | 93.29
46.22 K | 91.38 | –
47.48 K | – | 96.53
48 K | 93.87 | –
49.44 K | – | 99.69
49.81 K | 96.36 | –
50 K | 96.95 | 100.6
51.38 K | – | 102.7
51.62 K | 99.36 | –
53.34 K | – | 105.7
53.48 K | 101.9 | –
55.43 K | – | 108.8
55.49 K | 104.4 | –
57.6 K | – | 111.9
57.62 K | 106.9 | –
59.71 K | 109.9 | –
59.75 K | – | 114.9
60 K | 110.2 | 115.6
61.89 K | 112.3 | 117.8
64.01 K | – | 121.6
64.13 K | 115.1 | –
66.11 K | – | 123.9
66.36 K | 118.1 | –
68.19 K | – | 127.2
68.68 K | 120.7 | –
70 K | 122 | 129.2
70.41 K | – | 130
71.13 K | 123.1 | –
72.69 K | – | 132.8
73.64 K | 125.8 | –
75.03 K | – | 135.6
76.05 K | 128.6 | –
77.42 K | – | 138.4
78.39 K | 130.8 | –
79.89 K | – | 142.1
80 K | 132.7 | 141.8
80.75 K | 133.5 | –
82.45 K | – | 144.5
83.19 K | 136 | –
84.93 K | – | 147.7
85.74 K | 138.7 | –
87.39 K | – | 150.3
88.31 K | 141.4 | –
89.83 K | – | 153.7
90 K | 142.9 | 154.1
90.82 K | 143.8 | –
92.25 K | – | 157.1
93.26 K | 146.3 | –
95.42 K | – | 160.5
95.87 K | 149.1 | –
97.92 K | – | 163.5
98.65 K | 151.7 | –
100 K | 153.2 | 166
100.28 K | 153.6 | –
100.38 K | – | 166.5
100.78 K | – | 167.5
101.35 K | 154.9 | –
102.77 K | 156.1 | –
103.17 K | – | 170
105.21 K | 158.5 | –
105.51 K | – | 172.9
107.6 K | 160.8 | –
107.81 K | – | 175.4
110 K | 163.1 | 177.9
110.06 K | – | 177.9
